# Measured values: patent US20170107179A1 (Tetraphase Pharmaceuticals, Inc., priority 2010, published 2017)
# Like-named read-outs stand apart in the source and are kept apart here.
# Assays:
# [1] = system: S. aureus Smith; test: Mouse systemic infection (septicemia) model, CD-1 mice; settings: Staphylococcus aureus, in Mus musculus, 48 h; for responders at 3 mg/kg: iv, read-out: Percent survival at 48 hours, IV (3 mg/kg); for responders at 30 mg/kg: po, read-out: Percent survival at 48 hours, PO (30 mg/kg)
# [2] = system: Gram-negative and Gram-positive organisms (clinical isolates); test: Broth microdilution MIC against clinical isolates (CLSI M7-A8), Table 9; format: cell-based
# [3] = system: Legionella pneumophila, 70 isolates, serogroups 1-6; test: microbe, parasite or virus in culture; format: cell-based
# [4] = system: Gram-positive pathogens; test: Broth microdilution MIC, respiratory/skin pathogens (Table 12); settings: E. faecalis, VAN S (n = 53)
# [5] = system: Viridans group streptococci; test: Broth microdilution MIC by tetracycline resistance phenotype (Table 10); format: cell-based; parameters: unit not given beside the values
# [6] = system: E. coli DH10B EC971 LacZ; test: MIC, E. coli DH10B recombinantly expressing control gene; settings: E. coli DH10B, arabinose-induced, ampicillin in medium
# [7] = system: evaluated pathogens by tetracycline phenotype; test: Broth microdilution MIC by tetracycline phenotype (Table 14)
# [8] = system: E. coli DH10B EC1153 Tet(X); test: MIC, E. coli DH10B recombinantly expressing tetracycline-resistance gene; settings: arabinose-induced, ampicillin in medium
# [9] = system: E. coli DH10B EC969 TetM; test: as above; settings: arabinose-induced, ampicillin in medium
# [10] = system: E. coli DH10B EC970 TetK; test: as above; settings: arabinose-induced, ampicillin in medium
# [11] = system: E. coli DH10B EC1082 TetA; test: as above; settings: arabinose-induced, ampicillin in medium
# [12] = system: E. coli DH10B EC1083 TetB; test: as above; settings: arabinose-induced, ampicillin in medium
# [13] = Klebsiella aerogenes, Enterobacter aerogenes, n=30
# [14] = Klebsiella pneumoniae, Klebsiella pneumonia, n=27
# [15] = Stenotrophomonas maltophilia, n=29
# [16] = Streptococcus intermedius, n=30
# [17] = Enterococcus faecium, E. faecium, TET NS, N=40
# [18] = Enterococcus faecium, E. faecium, TET S, N=60
# [19] = Streptococcus agalactiae, S. agalactiae, TET NS, N=39
# [20] = Streptococcus agalactiae, S. agalactiae, TET S, N=11
# [21] = Streptococcus pneumoniae, S. pneumoniae, TET NS, N=46
# [22] = Streptococcus pneumoniae, S. pneumoniae, TET S, N=54
# [23] = Streptococcus pyogenes, S. pyogenes, TET S, N=44
smiles,measurement,setting,value
C[C@@H]1C(=O)Nc2c(O)c3c(c(F)c2CN1C)C[C@H]1C[C@H]2[C@H](N(C)C)C(O)=C(C(N)=O)C(=O)[C@@]2(O)C(O)=C1C3=O [Compound 406],responders at 3 mg/kg,[1],100%
same,responders at 30 mg/kg,[1],40%
CC(C)C[C@@H]1CNc2c(O)c3c(c(F)c2CN1)C[C@H]1C[C@H]2[C@H](N(C)C)C(O)=C(C(N)=O)C(=O)[C@@]2(O)C(O)=C1C3=O [Compound 408],responders at 3 mg/kg,[1],100%
same,responders at 30 mg/kg,[1],0%
CN(C)[C@@H]1C(O)=C(C(N)=O)C(=O)[C@@]2(O)C(O)=C3C(=O)c4c(O)c5c(c(F)c4C[C@H]3C[C@@H]12)CN1CCCC[C@@H]1C(=O)N5 [Compound 410],responders at 3 mg/kg,[1],100%
same,responders at 30 mg/kg,[1],50%
CN(C)[C@@H]1C(O)=C(C(N)=O)C(=O)[C@@]2(O)C(O)=C3C(=O)c4c(O)c5c(c(F)c4C[C@H]3C[C@@H]12)CN1CCC[C@H]1C(=O)N5 [Compound 412],responders at 3 mg/kg,[1],100%
same,responders at 30 mg/kg,[1],40%
CN1CC(=O)Nc2c(O)c3c(c(F)c2C1)C[C@H]1C[C@H]2[C@H](N(C)C)C(O)=C(C(N)=O)C(=O)[C@@]2(O)C(O)=C1C3=O [Compound 416],responders at 3 mg/kg,[1],100%
same,responders at 30 mg/kg,[1],20%
CC(C)C[C@H]1NCc2c(F)c3c(c(O)c2NC1=O)C(=O)C1=C(O)[C@]2(O)C(=O)C(C(N)=O)=C(O)[C@@H](N(C)C)[C@@H]2C[C@@H]1C3 [Compound 419],responders at 3 mg/kg,[1],100%
same,responders at 30 mg/kg,[1],40%
CC(C)C[C@@H]1C(=O)Nc2c(O)c3c(c(F)c2CN1C)C[C@H]1C[C@H]2[C@H](N(C)C)C(O)=C(C(N)=O)C(=O)[C@@]2(O)C(O)=C1C3=O [Compound 428],responders at 3 mg/kg,[1],50%
same,responders at 30 mg/kg,[1],0%
CC[C@H]1OC(=O)[C@H](C)[C@@H](O[C@H]2C[C@@](C)(OC)[C@@H](O)[C@H](C)O2)[C@H](C)[C@@H](O[C@@H]2O[C@H](C)C[C@H](N(C)C)[C@H]2O)[C@](C)(O)C[C@@H](C)C(=O)[C@H](C)[C@@H](O)[C@]1(C)O [Erythromycin],MIC50,[2],0.03 µg/mL
same,MIC90,[2],> 0.5 µg/mL
same,MIC50,[2]; Staphylococcus aureus,> 4 µg/mL
same,MIC90,[2]; Staphylococcus aureus,> 4 µg/mL
same,MIC50,[2]; Streptococcus anginosus,0.03 µg/mL
same,MIC90,[2]; Streptococcus anginosus,> 0.5 µg/mL
same,MIC50,[2]; Streptococcus intermedius,0.06 µg/mL
same,MIC90,[2]; Streptococcus intermedius,> 0.5 µg/mL
same,MIC50,[2]; Streptococcus mitis,> 0.5 µg/mL
same,MIC90,[2]; Streptococcus mitis,> 0.5 µg/mL
same,MIC50,[3],0.25 µg/mL
same,MIC90,[3],0.5 µg/mL
C[C@@H](O)[C@H]1C(=O)N2C(C(=O)O)=C(SCCN=CN)C[C@H]12 [Imipenern],MIC50,[4],1 µg/mL
same,MIC90,[4],1 µg/mL
"CN(C)c1cc(NC(=O)CNC(C)(C)C)c(O)c2c1C[C@H]1C[C@H]3[C@H](N(C)C)C(O)=C(C(N)=O)C(=O)[C@@]3(O)C(O)=C1C2=O [Tigecycline, tigecycline]",MIC50,"[2]; Acinetobacter lwoffii, n=29",0.12 µg/mL
same,MIC90,"[2]; Acinetobacter lwoffii, n=29",0.5 µg/mL
same,MIC50,"[2]; Enterobacter cloacae, n=29",1 µg/mL
same,MIC90,"[2]; Enterobacter cloacae, n=29",4 µg/mL
same,MIC50,"[2]; Escherichia coli, n=40",0.5 µg/mL
same,MIC90,"[2]; Escherichia coli, n=40",2 µg/mL
same,MIC50,"[2]; Kiebsielia oxytoca, n=30",0.5 µg/mL
same,MIC90,"[2]; Kiebsielia oxytoca, n=30",2 µg/mL
same,MIC50,[2]; [13],0.5 µg/mL
same,MIC90,[2]; [13],0.5 µg/mL
same,MIC50,[2]; [14],2 µg/mL
same,MIC90,[2]; [14],4 µg/mL
same,MIC50,"[2]; Morganella morganii, n=30",2 µg/mL
same,MIC90,"[2]; Morganella morganii, n=30",4 µg/mL
same,MIC50,"[2]; Proteus vulgaris, n=29",2 µg/mL
same,MIC90,"[2]; Proteus vulgaris, n=29",4 µg/mL
same,MIC50,"[2]; Salmonella species, n=30",0.25 µg/mL
same,MIC90,"[2]; Salmonella species, n=30",0.5 µg/mL
same,MIC50,"[2]; Serratia marcescens, n=30",1 µg/mL
same,MIC90,"[2]; Serratia marcescens, n=30",2 µg/mL
same,MIC50,"[2]; Staphylococcus aureus, Staphylococcus aureus (MRSA PVL+), n=30, read-out: MIC50",0.12 µg/mL
same,MIC90,"[2]; Staphylococcus aureus, Staphylococcus aureus (MRSA PVL+), n=30, read-out: MIC90",0.12 µg/mL
same,MIC50,"[2]; Staphylococcus aureus, Staphylococcus aureus MRSA (includes MRSA PVL+ group), n=105, read-out: MIC50",0.13 µg/mL
same,MIC90,"[2]; Staphylococcus aureus, Staphylococcus aureus MRSA (includes MRSA PVL+ group), n=105, read-out: MIC90",0.25 µg/mL
same,MIC50,[2]; [15],0.5 µg/mL
same,MIC90,[2]; [15],2 µg/mL
same,MIC50,"[2]; Streptococcus anginosus, n=20",0.03 µg/mL
same,MIC90,"[2]; Streptococcus anginosus, n=20",0.06 µg/mL
same,MIC50,[2]; [16],0.03 µg/mL
same,MIC90,[2]; [16],0.12 µg/mL
same,MIC50,"[2]; Streptococcus mitis, n=29",0.03 µg/mL
same,MIC90,"[2]; Streptococcus mitis, n=29",0.12 µg/mL
same,MIC50,"[2]; Streptococcus sanguis, n=18",0.03 µg/mL
same,MIC90,"[2]; Streptococcus sanguis, n=18",0.06 µg/mL
same,MIC50,"[5]; TET NS, n=32",0.03
same,MIC90,"[5]; TET NS, n=32",0.12
same,MIC50,"[5]; TET S, n=65",0.03
same,MIC90,"[5]; TET S, n=65",0.06
same,MIC EC971 LacZ,[6],0.0625
same,MIC50,[7]; [17],0.06 µg/mL
same,MIC90,[7]; [17],0.12 µg/mL
same,MIC50,[7]; [18],0.06 µg/mL
same,MIC90,[7]; [18],0.06 µg/mL
same,MIC50,"[7]; F. faecalis, TET NS, N=71",0.12 µg/mL
same,MIC90,"[7]; F. faecalis, TET NS, N=71",0.12 µg/mL
same,MIC50,"[7]; F. faecalis, TET S, N=30",0.06 µg/mL
same,MIC90,"[7]; F. faecalis, TET S, N=30",0.12 µg/mL
same,MIC50,[7]; [19],0.12 µg/mL
same,MIC90,[7]; [19],0.12 µg/mL
same,MIC50,[7]; [20],0.12 µg/mL
same,MIC90,[7]; [20],0.12 µg/mL
same,MIC50,[7]; [21],0.06 µg/mL
same,MIC90,[7]; [21],0.06 µg/mL
same,MIC50,[7]; [22],0.06 µg/mL
same,MIC90,[7]; [22],0.06 µg/mL
same,MIC50,"[7]; Streptococcus pyogenes, S. pyogenes, TET NS, N=6",0.06 µg/mL
same,MIC50,[7]; [23],0.06 µg/mL
same,MIC90,[7]; [23],0.06 µg/mL
same,MIC EC1153 Tet(X),[8],2
same,MIC EC969 TetM,[9],0.125
same,MIC EC970 TetK,[10],0.0625
same,MIC EC1082 TetA,[11],1
same,MIC EC1083 TetB,[12],0.0625
